Results on five molecules are retold here after US20230093594A1, “PANTETHENOYLCYSTEINE DERIVATIVES AND USES THEREOF” (Comet Therapeutics, Inc., priority 2019, published 2023).

Assay [1] has as its system CD14+ monocytes differentiated to M1 macrophages. Nature of the assay: M1 differentiation assay (macrophage cytokine secretion, ELISA). In kind it is cell-based, human. The note with it: 10 uM. As for the experimental part: Monocytes were isolated by positive isolation with CD14+ microbeads (Miltenyi, 130-050-201). Monocytes were 99% viable and were 96% purity as analyzed by FACS and CD14±(BD, 563561). 100,000 monocytes along with compounds at the dose of 10 and 50 μM were allowed to differentiate to macrophages with 10 ng/ml GMCSF (R&D,15-GM-050/CF) in RPMI complete media (Invitrogen, 22400089) with 15% FBS (Hyclone SV30087.03) and 1% Penicillin-Streptomycin (Gibco, 15140-122). On day 2 and 4 half the media was refreshed with fresh GM-CSF and compounds at 10 and 50 μM dose. On day 6 the macrophages were matured with GMCSF, IFN, (R&D 285-IF-100/CF) and LPS (Sigma, L6143) in the presence of 10 μM and 50 μM of compounds. After 24h, supernatant was collected for the measurement of TNFα (DKW, 1117202), IL6 (DKW, 1110602), IL10 (DKW, 1110003) by ELISA. Macrophages were detached gently on ice with EDTA (Invitrogen, 15575-038) and analyzed by FACS (BD LSR Fortessa, 853492). […]

In assay [2] the test system is MMA Patient fibroblasts (GM01673). The experiment in a line: Mitochondrial morphology imaging in MMA patient fibroblasts (GM01673). The following applies: image compared with fragmented mitochondria in vehicle control. In kind it is cell-based.
The subject of assay [3] is MMA Patient fibroblasts (TSI 3739). The experiment in a line: Mitochondrial morphology imaging in MMA patient fibroblasts (TSI 3739). In kind it is cell-based. The note with it: image compared with fragmented mitochondria in vehicle control.
Assay [4] relates to MMA Patient fibroblasts (GM00371). The experiment in a line: Mitochondrial morphology imaging in MMA patient fibroblasts (GM00371). In kind it is cell-based. The following applies: image compared with fragmented mitochondria in vehicle control.

As to `CC(=O)NCCCC(=O)SC[C@H](NC(=O)CCNC(=O)[C@H](O)C(C)(C)CO)C(=O)O` [Compound 215, (2R)-2-[3-[(2R)-2,4-dihydroxy-3,3-dimethylbutanamido]propanamido]-3-[(4-acetamidobutanoyl)sulfanyl]propanoic acid], in assay [1], the “% decrease in Macrophage IL-6 Secretion” value is recorded as ≥30% and the “% decrease in Macrophage TNFα Secretion” value is reported as ≥30%.

Turning to `COC(=O)[C@H](CSC(=O)CCCN)NC(=O)CCNC(=O)[C@H](O)C(C)(C)CO` [Compound 72, methyl (2R)-3-[(4-aminobutanoyl)sulfanyl]-2-[3-[(2R)-2,4-dihydroxy-3,3-dimethylbutanamido]propanamido]propanoate], the “mitochondrial morphology (elongation and networking of mitochondria)” value (from here on “mitochondrial morphology”) in assay [2] was “elongation and networking of mitochondria promoted”.

For `COC(=O)[C@H](CSC(=O)CCCNC(C)=O)NC(=O)CCNC(=O)[C@H](O)C(C)(C)CO` [Compound 216, methyl (2R)-2-[3-[(2R)-2,4-dihydroxy-3,3-dimethylbutanamido]propanamido]-3-[(4-acetamidobutanoyl)sulfanyl]propanoate], the “mitochondrial morphology” value in assay [2] is “elongation and networking of mitochondria promoted”; in assay [3], “elongation and networking of mitochondria promoted”.

For the molecule `COC(=O)[C@H](CSC(=O)CCCOC(C)=O)NC(=O)CCNC(=O)[C@H](O)C(C)(C)CO` [Compound 698, methyl (2R)-3-[[4-(acetyloxy)butanoyl]sulfanyl]-2-[3-[(2R)-2,4-dihydroxy-3,3-dimethylbutanamido]propanamido]propanoate], the “mitochondrial morphology” value in assay [2] is “elongation and networking of mitochondria promoted”; in assay [3] it was “elongation and networking of mitochondria promoted”.

As to `COC(=O)[C@H](CSC(=O)CCCO)NC(=O)CCNC(=O)[C@H](O)C(C)(C)CO` [Compound 697, methyl (2R)-2-[3-[(2R)-2,4-dihydroxy-3,3-dimethylbutanamido]propanamido]-3-[(4-hydroxybutanoyl)sulfanyl]propanoate], the “mitochondrial morphology” value in assay [4] was “elongation and networking of mitochondria promoted”; in assay [2], “elongation and networking of mitochondria promoted”; in assay [3] it was “elongation and networking of mitochondria promoted”.
